In ChEMBL document CHEMBL1151687, “Search for alpha-helical propensity in the receptor-bound conformation of glucagon-like peptide-1” (Bioorg Med Chem, 2008):
Positions of bridges follow the written chain, without caps; N, C: chain ends. Residues, ends and D or L forms follow the SMILES beside them.

How the values were obtained:
[1] = target: T1, Glucagon-like peptide 1 receptor (Homo sapiens, UniProt P43220); experiment: Activation of human GLP1R expressed in HEK293 cells assessed as effect on cAMP responsive element promoter driven luciferase expression; assay type: functional, cell-based
[2] = target: T1, Glucagon-like peptide 1 receptor; experiment: Displacement of [125I]exendin(9-39) from human GLP1R expressed in HEK293 cells; assay type: cell-based

T1 sequence (P43220 whole entry): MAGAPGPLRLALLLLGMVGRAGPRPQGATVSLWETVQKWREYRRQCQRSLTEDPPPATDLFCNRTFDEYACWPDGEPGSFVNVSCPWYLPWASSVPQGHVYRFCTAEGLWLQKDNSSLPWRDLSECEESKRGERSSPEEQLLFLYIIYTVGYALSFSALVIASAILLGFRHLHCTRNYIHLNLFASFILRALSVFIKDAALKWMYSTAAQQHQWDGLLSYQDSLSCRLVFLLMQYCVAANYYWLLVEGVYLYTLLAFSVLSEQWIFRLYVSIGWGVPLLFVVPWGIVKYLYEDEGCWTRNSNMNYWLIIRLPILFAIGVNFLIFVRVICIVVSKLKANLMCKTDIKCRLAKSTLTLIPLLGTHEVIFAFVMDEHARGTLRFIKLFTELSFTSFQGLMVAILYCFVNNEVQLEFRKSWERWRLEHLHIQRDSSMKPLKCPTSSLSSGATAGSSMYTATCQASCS

| EC50 [1] [nM] | IC50 [2] [nM] | EC50 ([1]; hek293) [nM] | IC50 ([2]; hek293) [nM] | Compound |
| --- | --- | --- | --- | --- |
| 0.12 | 1600 | – | – | CC[C@H](C)[C@H](NC(=O)[C@H](CCC(=O)O)NC(=O)[C@H](CCCCN)NC(=O)[C@H](CCC(N)=O)NC(=O)[C@H](C)NC(=O)[C@H](CCC(N)=O)NC(=O)CNC(=O)[C@H](CCCCNC(C)=O)NC(=O)[C@H](CC(C)C)NC(=O)[C@H](Cc1ccc(O)cc1)NC(=O)[C@H](CO)NC(=O)[C@H](CO)NC(=O)[C@@H](NC(=O)[C@H](CC(=O)O)NC(=O)[C@H](CO)NC(=O)[C@@H](NC(=O)[C@H](Cc1ccccc1)NC(=O)[C@@H](NC(=O)CNC(=O)[C@H](CCC(=O)O)NC(=O)[C@H](C)NC(=O)[C@@H](N)Cc1cnc[nH]1)[C@@H](C)O)[C@@H](C)O)C(C)C)C(=O)N[C@@H](Cc1ccccc1)C(=O)N[C@@H](C)C(=O)N[C@@H](Cc1c[nH]c2ccccc12)C(=O)N[C@@H](CC(C)C)C(=O)N[C@H](C(=O)N[C@@H](CCCCN)C(=O)NCC(=O)N[C@@H](CCCNC(=N)N)C(N)=O)C(C)C (H-HAEGTFTSDVSSYLK(Ac)GQAQKEIFAWLVKGR-NH2) |
| 0.1 | 1200 | – | – | CC[C@H](C)[C@H](NC(=O)[C@H](CCC(=O)O)NC(=O)[C@H](CCCCN)NC(=O)[C@H](C)NC(=O)[C@H](CCC(N)=O)NC(=O)[C@H](CCC(N)=O)NC(=O)CNC(=O)[C@H](CCC(=O)O)NC(=O)[C@H](CCCCNC(C)=O)NC(=O)[C@H](Cc1ccc(O)cc1)NC(=O)[C@H](CO)NC(=O)[C@H](CO)NC(=O)[C@@H](NC(=O)[C@H](CC(=O)O)NC(=O)[C@H](CO)NC(=O)[C@@H](NC(=O)[C@H](Cc1ccccc1)NC(=O)[C@@H](NC(=O)CNC(=O)[C@H](CCC(=O)O)NC(=O)[C@H](C)NC(=O)[C@@H](N)Cc1cnc[nH]1)[C@@H](C)O)[C@@H](C)O)C(C)C)C(=O)N[C@@H](Cc1ccccc1)C(=O)N[C@@H](C)C(=O)N[C@@H](Cc1c[nH]c2ccccc12)C(=O)N[C@@H](CC(C)C)C(=O)N[C@H](C(=O)N[C@@H](CCCCN)C(=O)NCC(=O)N[C@@H](CCCNC(=N)N)C(N)=O)C(C)C (H-HAEGTFTSDVSSYK(Ac)EGQQAKEIFAWLVKGR-NH2) |
| 0.0038 | 17 | – | – | CC[C@H](C)[C@H](NC(=O)[C@H](CCC(=O)O)NC(=O)[C@H](CCCCN)NC(=O)[C@H](C)NC(=O)[C@H](C)NC(=O)[C@H](CCC(N)=O)NC(=O)[C@H](CCC(N)=O)NC(=O)[C@H](CCC(=O)O)NC(=O)[C@H](CC(C)C)NC(=O)[C@H](Cc1ccc(O)cc1)NC(=O)[C@H](CCCCNC(C)=O)NC(=O)[C@H](CO)NC(=O)[C@@H](NC(=O)[C@H](CC(=O)O)NC(=O)[C@H](CO)NC(=O)[C@@H](NC(=O)[C@H](Cc1ccccc1)NC(=O)[C@@H](NC(=O)CNC(=O)[C@H](CCC(=O)O)NC(=O)[C@H](C)NC(=O)[C@@H](N)Cc1cnc[nH]1)[C@@H](C)O)[C@@H](C)O)C(C)C)C(=O)N[C@@H](Cc1ccccc1)C(=O)N[C@@H](C)C(=O)N[C@@H](Cc1c[nH]c2ccccc12)C(=O)N[C@@H](CC(C)C)C(=O)N[C@H](C(=O)N[C@@H](CCCCN)C(=O)NCC(=O)N[C@@H](CCCNC(=N)N)C(N)=O)C(C)C (H-HAEGTFTSDVSK(Ac)YLEQQAAKEIFAWLVKGR-NH2) |

Further lines, the compound ahead of its results:

| Compound | EC50 [1] [nM] | IC50 [2] [nM] | EC50 ([1]; hek293) [nM] | IC50 ([2]; hek293) [nM] |
| --- | --- | --- | --- | --- |
| CC[C@H](C)[C@H](NC(=O)[C@H](CCC(=O)O)NC(=O)[C@H](CCCCN)NC(=O)[C@H](C)NC(=O)[C@H](C)NC(=O)[C@H](CCC(N)=O)NC(=O)CNC(=O)[C@H](CCC(=O)O)NC(=O)[C@H](CCC(N)=O)NC(=O)[C@H](Cc1ccc(O)cc1)NC(=O)[C@H](CO)NC(=O)[C@H](CO)NC(=O)[C@H](CCCCNC(C)=O)NC(=O)[C@H](CC(=O)O)NC(=O)[C@H](CO)NC(=O)[C@@H](NC(=O)[C@H](Cc1ccccc1)NC(=O)[C@@H](NC(=O)CNC(=O)[C@H](CCC(=O)O)NC(=O)[C@H](C)NC(=O)[C@@H](N)Cc1cnc[nH]1)[C@@H](C)O)[C@@H](C)O)C(=O)N[C@@H](Cc1ccccc1)C(=O)N[C@@H](C)C(=O)N[C@@H](Cc1c[nH]c2ccccc12)C(=O)N[C@@H](CC(C)C)C(=O)N[C@H](C(=O)N[C@@H](CCCCN)C(=O)NCC(=O)N[C@@H](CCCN=C(N)N)C(N)=O)C(C)C | 0.012 | 6.6 | – | – |
| CC[C@H](C)[C@H](NC(=O)[C@H](Cc1ccccc1)NC(=O)[C@H](CCC(=O)O)NC(=O)[C@H](CCCCN)NC(=O)[C@H](C)NC(=O)[C@H](C)NC(=O)[C@H](CCC(N)=O)NC(=O)CNC(=O)[C@H](CCC(=O)O)NC(=O)[C@@H]1CCC(=O)NCCCC[C@H](NC(=O)[C@H](CC(=O)O)NC(=O)[C@H](CO)NC(=O)[C@@H](NC(=O)[C@H](Cc2ccccc2)NC(=O)[C@@H](NC(=O)CNC(=O)[C@H](CCC(=O)O)NC(=O)[C@H](C)NC(=O)[C@@H](N)Cc2cnc[nH]2)[C@@H](C)O)[C@@H](C)O)C(=O)N[C@@H](CO)C(=O)N[C@@H](CO)C(=O)N[C@@H](Cc2ccc(O)cc2)C(=O)N1)C(=O)N[C@@H](C)C(=O)N[C@@H](Cc1c[nH]c2ccccc12)C(=O)N[C@@H](CC(C)C)C(=O)N[C@H](C(=O)N[C@@H](CCCCN)C(=O)NCC(=O)N[C@@H](CCCNC(=N)N)C(N)=O)C(C)C (H-HAEGTFTSDKSSYEEGQAAKEFIAWLVKGR-NH2; lactam 10-14) | 0.0075 | 4.5 | – | – |
| CC[C@H](C)[C@H](NC(=O)[C@H](CCC(=O)O)NC(=O)[C@H](CCCCN)NC(=O)[C@H](C)NC(=O)[C@H](C)NC(=O)[C@H](CCC(N)=O)NC(=O)CNC(=O)[C@H](CCC(=O)O)NC(=O)[C@H](CC(C)C)NC(=O)[C@H](Cc1ccc(O)cc1)NC(=O)[C@H](CCC(N)=O)NC(=O)[C@H](CO)NC(=O)[C@@H](NC(=O)[C@H](CC(=O)O)NC(=O)[C@H](CCCCNC(C)=O)NC(=O)[C@@H](NC(=O)[C@H](Cc1ccccc1)NC(=O)[C@@H](NC(=O)CNC(=O)[C@H](CCC(=O)O)NC(=O)[C@H](C)NC(=O)[C@@H](N)Cc1cnc[nH]1)[C@@H](C)O)[C@@H](C)O)C(C)C)C(=O)N[C@@H](Cc1ccccc1)C(=O)N[C@@H](C)C(=O)N[C@@H](Cc1c[nH]c2ccccc12)C(=O)N[C@@H](CC(C)C)C(=O)N[C@H](C(=O)N[C@@H](CCCCN)C(=O)NCC(=O)N[C@@H](CCCN=C(N)N)C(N)=O)C(C)C (H-HAEGTFTK(Ac)DVSQYLEGQAAKEIFAWLVKGR-NH2) | 16 | 230 | – | – |
| CC[C@H](C)[C@H](NC(=O)[C@H](CCC(=O)O)NC(=O)[C@H](CCCCN)NC(=O)[C@H](C)NC(=O)[C@H](C)NC(=O)[C@H](CCC(N)=O)NC(=O)CNC(=O)[C@H](CCC(=O)O)NC(=O)[C@H](CC(C)C)NC(=O)[C@H](Cc1ccc(O)cc1)NC(=O)[C@H](CO)NC(=O)[C@H](CO)NC(=O)[C@@H](NC(=O)[C@H](CC(=O)O)NC(=O)[C@H](CO)NC(=O)[C@@H](NC(=O)[C@H](Cc1ccccc1)NC(=O)[C@@H](NC(=O)CNC(=O)[C@H](CCC(=O)O)NC(=O)[C@H](C)NC(=O)[C@@H](N)Cc1cnc[nH]1)[C@@H](C)O)[C@@H](C)O)C(C)C)C(=O)N[C@@H](Cc1ccccc1)C(=O)N[C@@H](C)C(=O)N[C@@H](Cc1c[nH]c2ccccc12)C(=O)N[C@@H](CC(C)C)C(=O)N[C@H](C(=O)N[C@@H](CCCCN)C(=O)NCC(=O)N[C@@H](CCCN=C(N)N)C(=O)O)C(C)C (H-HAEGTFTSDVSSYLEGQAAKEIFAWLVKGR-OH) | – | – | 0.0036 | 2.6 |
